Experiment [1] has as its target T1, SUR1/Kir6.2-G334D (Homo sapiens, UniProt Q09428).
T1 construct: expressed in transfected cells; host or cells: HEK-293T
More on the design: method as in Proks et al., 2010. The conditions noted are these: ref Proks et al., 2010; read-out: EC50 for activation of currents; cited from earlier work.

In experiment [2] the target is T2, SUR1-Y1353^stop/Kir6.2 (Homo sapiens, UniProt Q09428+Q14654).
T2 construct: expressed in transfected cells; host or cells: HEK-293T
T2 sequence (Q09428 1-1352): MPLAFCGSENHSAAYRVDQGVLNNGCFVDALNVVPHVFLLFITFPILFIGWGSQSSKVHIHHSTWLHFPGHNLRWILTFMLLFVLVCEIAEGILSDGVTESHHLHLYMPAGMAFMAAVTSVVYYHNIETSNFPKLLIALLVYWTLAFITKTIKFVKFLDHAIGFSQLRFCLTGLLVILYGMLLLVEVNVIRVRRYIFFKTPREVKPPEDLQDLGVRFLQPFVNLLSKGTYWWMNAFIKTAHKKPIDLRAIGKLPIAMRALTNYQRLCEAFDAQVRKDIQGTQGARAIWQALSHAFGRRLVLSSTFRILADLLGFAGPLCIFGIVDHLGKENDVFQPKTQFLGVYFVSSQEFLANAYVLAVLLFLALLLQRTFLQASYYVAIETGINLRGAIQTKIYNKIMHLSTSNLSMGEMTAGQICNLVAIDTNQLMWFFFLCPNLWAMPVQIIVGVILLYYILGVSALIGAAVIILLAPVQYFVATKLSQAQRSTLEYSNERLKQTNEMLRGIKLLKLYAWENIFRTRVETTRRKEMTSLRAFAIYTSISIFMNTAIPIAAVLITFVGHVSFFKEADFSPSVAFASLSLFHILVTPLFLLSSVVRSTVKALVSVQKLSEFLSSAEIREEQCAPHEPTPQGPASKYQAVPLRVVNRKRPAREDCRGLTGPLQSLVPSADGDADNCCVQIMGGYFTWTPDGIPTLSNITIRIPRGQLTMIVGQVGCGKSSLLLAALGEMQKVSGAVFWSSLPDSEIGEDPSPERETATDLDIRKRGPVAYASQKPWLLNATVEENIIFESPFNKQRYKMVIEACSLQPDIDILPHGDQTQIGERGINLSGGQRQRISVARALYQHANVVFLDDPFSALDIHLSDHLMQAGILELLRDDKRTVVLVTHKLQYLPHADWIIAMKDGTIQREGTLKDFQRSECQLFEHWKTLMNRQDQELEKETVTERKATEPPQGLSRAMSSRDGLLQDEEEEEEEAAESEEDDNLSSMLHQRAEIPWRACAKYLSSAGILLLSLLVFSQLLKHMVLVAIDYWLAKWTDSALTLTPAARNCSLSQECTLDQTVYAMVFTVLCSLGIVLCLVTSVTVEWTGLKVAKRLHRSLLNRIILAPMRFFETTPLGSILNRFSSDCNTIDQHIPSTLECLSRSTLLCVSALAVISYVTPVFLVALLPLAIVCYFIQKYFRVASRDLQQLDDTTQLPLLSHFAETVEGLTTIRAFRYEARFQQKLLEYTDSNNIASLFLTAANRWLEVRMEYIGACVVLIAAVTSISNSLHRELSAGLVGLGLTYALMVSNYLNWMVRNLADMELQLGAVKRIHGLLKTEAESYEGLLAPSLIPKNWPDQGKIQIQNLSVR
T2 sequence (Q14654 1-390): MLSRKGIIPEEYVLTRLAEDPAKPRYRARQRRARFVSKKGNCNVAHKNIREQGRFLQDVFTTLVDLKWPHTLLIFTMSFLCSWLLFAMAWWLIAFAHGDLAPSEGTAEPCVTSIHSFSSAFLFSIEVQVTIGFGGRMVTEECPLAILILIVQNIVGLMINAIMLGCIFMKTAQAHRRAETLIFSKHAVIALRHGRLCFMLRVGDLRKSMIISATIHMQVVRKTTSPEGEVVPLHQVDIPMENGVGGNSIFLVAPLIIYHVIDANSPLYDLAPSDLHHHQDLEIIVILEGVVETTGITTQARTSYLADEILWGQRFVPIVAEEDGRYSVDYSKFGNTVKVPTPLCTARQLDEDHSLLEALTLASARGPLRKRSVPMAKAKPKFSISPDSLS
As to the kind of experiment: Current response to 100 μM nucleotide relative to nucleotide-free solution, inside-out patches. In kind it is biochemical. The conditions noted are these: truncated SUR1-Y1353^stop. As to the method:
(§1) Currents were recorded from inside-out membrane patches excised from transfected HEK-293T cells. Pipettes were pulled to a resistance of 1–5 MΩ and filled with an extracellular solution containing (in mM) 140 KCl, 1.2 MgCl2, 2.6 CaCl2, and 10 HEPES, pH 7.4 or 140 KCl, 1 EGTA, 10 HEPES, pH 7.3. The intracellular (bath) solutions contained either (in mM) 107 KCl, 2 MgCl2, 1 CaCl2, 10 EGTA, and 10 HEPES, pH 7.2 for experiments showing nucleotide-dependent activation or 140 KCl, 1 EDTA, 1 EGTA, 10 HEPES pH 7.3 for experiments showing nucleotide-dependent inhibition. Nucleotides were added as indicated. Patches were perfused with an 8-channel µFlow perfusion system. Data were acquired at a holding potential of −60 mV using an Axopatch 200B amplifier and Digidata 1322A digitizer with pClamp 9.0 software (Molecular Devices). Currents were digitized at 10 kHz and low-pass filtered at 1 kHz. KATP channels run down in excised patches (reviewed by Proks et al.) ([Proks et al., 2016]). For inhibitory concentration-response relationships, rundown was corrected by alternating test nucleotide solutions with nucleotide-free (control) solutions and expressing the test currents as a fraction of the average of the control currents before and after the test solution. […]

Experiment [3] deals with T3, 3xFLAG_SUR1/Kir6.2 (Homo sapiens, UniProt Q09428+Q14654, INS1042[…]).
T3 construct: expressed in transfected cells; host or cells: HEK-293T
T3 sequence (Q09428 with tags, fused parts or gaps INS1042[withheld], one chain of several): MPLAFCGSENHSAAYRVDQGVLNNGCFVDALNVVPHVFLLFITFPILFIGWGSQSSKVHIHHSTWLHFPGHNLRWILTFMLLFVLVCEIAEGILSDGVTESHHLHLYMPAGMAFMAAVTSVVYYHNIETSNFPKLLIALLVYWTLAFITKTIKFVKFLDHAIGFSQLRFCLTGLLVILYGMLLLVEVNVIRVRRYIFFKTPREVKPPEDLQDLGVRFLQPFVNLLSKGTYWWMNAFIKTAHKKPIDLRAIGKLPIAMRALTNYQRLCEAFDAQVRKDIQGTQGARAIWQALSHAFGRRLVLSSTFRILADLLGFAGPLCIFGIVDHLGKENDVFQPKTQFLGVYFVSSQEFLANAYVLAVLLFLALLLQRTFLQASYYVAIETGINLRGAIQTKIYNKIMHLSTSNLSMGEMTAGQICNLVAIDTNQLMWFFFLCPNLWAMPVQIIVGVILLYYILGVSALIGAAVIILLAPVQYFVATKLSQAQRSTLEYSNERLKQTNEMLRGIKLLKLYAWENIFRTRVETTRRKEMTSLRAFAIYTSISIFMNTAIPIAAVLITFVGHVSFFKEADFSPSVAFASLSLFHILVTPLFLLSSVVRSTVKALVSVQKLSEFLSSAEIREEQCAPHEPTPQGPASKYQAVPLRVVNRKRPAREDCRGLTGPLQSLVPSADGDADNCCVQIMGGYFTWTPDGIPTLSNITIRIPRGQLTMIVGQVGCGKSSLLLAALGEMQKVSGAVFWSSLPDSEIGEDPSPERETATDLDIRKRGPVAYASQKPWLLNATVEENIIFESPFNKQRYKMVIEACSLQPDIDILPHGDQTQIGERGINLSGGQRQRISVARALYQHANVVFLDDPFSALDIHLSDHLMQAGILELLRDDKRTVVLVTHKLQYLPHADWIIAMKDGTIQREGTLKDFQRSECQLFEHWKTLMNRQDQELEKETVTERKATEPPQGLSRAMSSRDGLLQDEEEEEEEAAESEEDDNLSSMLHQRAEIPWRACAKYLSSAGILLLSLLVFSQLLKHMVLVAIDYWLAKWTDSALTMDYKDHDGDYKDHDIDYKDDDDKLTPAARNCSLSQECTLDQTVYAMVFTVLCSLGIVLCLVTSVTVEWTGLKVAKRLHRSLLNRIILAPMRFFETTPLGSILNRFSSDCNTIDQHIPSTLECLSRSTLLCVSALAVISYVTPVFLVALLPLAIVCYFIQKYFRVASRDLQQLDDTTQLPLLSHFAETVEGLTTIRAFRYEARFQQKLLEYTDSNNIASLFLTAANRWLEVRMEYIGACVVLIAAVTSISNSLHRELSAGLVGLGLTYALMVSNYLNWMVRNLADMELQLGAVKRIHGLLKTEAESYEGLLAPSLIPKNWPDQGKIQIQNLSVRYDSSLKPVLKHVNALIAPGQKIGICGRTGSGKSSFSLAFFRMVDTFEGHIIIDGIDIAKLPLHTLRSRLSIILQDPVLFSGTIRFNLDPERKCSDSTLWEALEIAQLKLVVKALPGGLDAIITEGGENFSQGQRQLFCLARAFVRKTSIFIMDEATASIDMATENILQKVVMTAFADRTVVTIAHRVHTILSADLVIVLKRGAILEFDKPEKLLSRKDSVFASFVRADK
The description is as above. The experiment is classed as biochemical. Here is the method:
as §1

Experiment [4] deals with SUR1/Kir6.2-G334D with K1384A (K2A) in NBS2. Also on record: method as in Proks et al., 2014. Conditions: ref Proks et al., 2014; cited from earlier work.
For experiment [5], the system named is SUR1-Y1353*/Kir6.2-G334D. Description: Currents in inside-out patches. In kind it is biochemical, Homo sapiens. Conditions: co-expressed with pANAP and pERF1-E55D. Here is the method: as §1
Experiment [6] concerns the target T1, SUR1/Kir6.2-G334D. Description: Current activation in inside-out patches. In kind it is biochemical. As to the method: as §1
Experiment [7] relates to T4, SUR1-T1397*/Kir6.2-G334D.
T4 construct: confirmed that >95% of SUR1-T1397* was full length; expressed in transfected cells; host or cells: HEK-293T
Description: Current activation in inside-out patches. The experiment is classed as biochemical, Homo sapiens. Here is the method: as §1

Consider one molecule from paper PMC6400584, “Activation mechanism of ATP-sensitive K^+ channels explored with real-time nucleotide binding” (eLife, 2019).

One may read the EC50 as the midpoint of the concentration-response curve.

Each structure is given as a SMILES string.

T1 sequence (Q09428 whole entry, stated change not applied): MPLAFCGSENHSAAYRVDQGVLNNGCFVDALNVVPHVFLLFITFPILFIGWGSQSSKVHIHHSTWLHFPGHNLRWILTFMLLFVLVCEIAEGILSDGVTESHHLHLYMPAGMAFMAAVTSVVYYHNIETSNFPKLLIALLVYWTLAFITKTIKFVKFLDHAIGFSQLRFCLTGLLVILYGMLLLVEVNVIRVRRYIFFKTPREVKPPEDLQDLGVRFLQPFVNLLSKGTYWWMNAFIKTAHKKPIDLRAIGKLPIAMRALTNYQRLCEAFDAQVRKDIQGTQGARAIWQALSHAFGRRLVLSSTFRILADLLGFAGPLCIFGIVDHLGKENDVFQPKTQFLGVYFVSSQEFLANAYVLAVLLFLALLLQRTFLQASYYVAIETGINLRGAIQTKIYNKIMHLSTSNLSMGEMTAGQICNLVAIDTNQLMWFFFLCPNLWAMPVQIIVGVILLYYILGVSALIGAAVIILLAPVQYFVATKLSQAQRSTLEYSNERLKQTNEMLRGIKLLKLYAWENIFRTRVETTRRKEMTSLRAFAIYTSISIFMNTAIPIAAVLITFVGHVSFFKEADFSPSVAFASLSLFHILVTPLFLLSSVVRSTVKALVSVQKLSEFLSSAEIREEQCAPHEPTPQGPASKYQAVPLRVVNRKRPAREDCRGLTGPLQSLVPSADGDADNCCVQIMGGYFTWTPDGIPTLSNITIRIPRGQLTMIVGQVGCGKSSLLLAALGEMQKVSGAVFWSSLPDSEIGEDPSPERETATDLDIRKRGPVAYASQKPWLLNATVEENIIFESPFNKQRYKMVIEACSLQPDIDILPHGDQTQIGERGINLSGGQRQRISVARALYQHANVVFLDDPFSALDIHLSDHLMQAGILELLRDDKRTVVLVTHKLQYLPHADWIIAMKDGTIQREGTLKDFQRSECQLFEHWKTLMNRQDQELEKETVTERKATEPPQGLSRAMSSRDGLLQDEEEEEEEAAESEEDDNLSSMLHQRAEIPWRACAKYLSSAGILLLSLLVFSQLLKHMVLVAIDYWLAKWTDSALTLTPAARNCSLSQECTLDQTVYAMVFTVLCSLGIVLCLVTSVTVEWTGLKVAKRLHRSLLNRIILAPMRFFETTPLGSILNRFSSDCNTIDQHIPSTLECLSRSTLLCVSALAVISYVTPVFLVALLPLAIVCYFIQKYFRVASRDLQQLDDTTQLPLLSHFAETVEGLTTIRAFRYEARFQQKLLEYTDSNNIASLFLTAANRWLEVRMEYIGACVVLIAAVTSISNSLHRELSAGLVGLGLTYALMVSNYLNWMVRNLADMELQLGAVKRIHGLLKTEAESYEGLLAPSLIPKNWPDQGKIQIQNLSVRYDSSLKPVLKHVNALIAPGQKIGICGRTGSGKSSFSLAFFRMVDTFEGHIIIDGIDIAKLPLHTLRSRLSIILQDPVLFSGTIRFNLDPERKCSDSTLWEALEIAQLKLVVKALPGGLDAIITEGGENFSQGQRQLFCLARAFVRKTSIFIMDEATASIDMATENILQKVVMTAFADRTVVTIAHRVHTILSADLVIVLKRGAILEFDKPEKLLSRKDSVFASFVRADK
T1 sequence (Q14654 whole entry G334D partner): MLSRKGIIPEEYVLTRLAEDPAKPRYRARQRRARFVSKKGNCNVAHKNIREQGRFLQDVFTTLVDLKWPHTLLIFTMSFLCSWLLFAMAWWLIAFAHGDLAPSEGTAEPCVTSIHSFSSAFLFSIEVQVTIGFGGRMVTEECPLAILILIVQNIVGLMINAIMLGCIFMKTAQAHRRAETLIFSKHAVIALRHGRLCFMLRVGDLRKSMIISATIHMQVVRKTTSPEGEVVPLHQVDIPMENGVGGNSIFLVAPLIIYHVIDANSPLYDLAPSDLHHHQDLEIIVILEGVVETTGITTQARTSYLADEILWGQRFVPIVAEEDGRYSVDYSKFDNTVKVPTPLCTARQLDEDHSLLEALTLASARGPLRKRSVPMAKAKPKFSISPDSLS

On to `Nc1ncnc2c1ncn2[C@@H]1O[C@H](COP(=O)([O-])OP(=O)([O-])O)[C@@H](O)[C@H]1O.[Mg+2]` [MgADP], for which the EC50 in experiment [1] was 7.7 µM; in experiment [7] (Equation 5 fit to combined data), 38.6 µM; in experiment [7] (mean ± SEM of fits of equation 5 to individual experiments), 44.4 ± 14.5 µM. The inhibition of current in experiment [2] was 59%. For the same molecule, the “increase of current over nucleotide-free control” value in experiment [3] came out at 3.6 fold. In addition, in experiment [4], the “shift of concentration dependence of activation to higher concentrations by K2A mutation” value is on record as more than 20 fold. Moreover, the effect on currents entry is given as “no activation” in experiment [5] and “activated” in experiment [6].
